Measurements as given in ChEMBL document CHEMBL5244275, “Geminal Diheteroatomic Motifs: Some Applications of Acetals, Ketals, and Their Sulfur and Nitrogen Homologues in Medicinal Chemistry and Drug Design” (J Med Chem, 2021).

Assay: Chemical stability of the compound assessed as acid-catalyzed hydrolysis by measuring rate constant
Format: physicochemical
Conditions: not given

| Drug metabolism | Structure (SMILES) |
| --- | --- |
| 0.012 L/mol/min | Nc1ncnc2c1ncn2[C@@H]1O[C@H](CO)C[C@H]1O [CORDYCEPIN] |
| 0.82 10^-3L/mol/min | Nc1ncnc2c1ncn2[C@@H]1O[C@H](CO)[C@@H](O)[C@H]1O [ADENOSINE] |
| 35 L/mol/min | Nc1ncnc2c1ncn2[C@H]1CC[C@@H](CO)O1 |

Assay: Dissociation constant, pKa of the compound
Format: physicochemical
Conditions: not given

| pKa | Structure (SMILES) |
| --- | --- |
| 3.7 | CCC(C)n1ncn(-c2ccc(N3CCN(c4ccc(OCC5COC(Cn6cncn6)(c6ccc(Cl)cc6Cl)O5)cc4)CC3)cc2)c1=O (stereo not given) [ITRACONAZOLE] |

Assay: Stability of the compound in HCL solution assessed as compound hydrolysis by measuring relative rate constant by NMR analysis
Format: physicochemical
Conditions: buffer

| Structure (SMILES) | K |
| --- | --- |
| CCOC1(OCC)CCCCC1 | 1.3 10^10No_unit |
| C1CCC2(CC1)OCCO2 | 5.4 10^5No_unit |
| COC1OCCCO1 | 9.3 10^4No_unit |

The remaining lines, values ahead:

| K | Structure (SMILES) |
| --- | --- |
| 3.3 10^6No_unit | c1ccc2c(c1)COC1(CCCCC1)OC2 |
| 2.3 10^9No_unit | CCOC1(OCC)OCCCO1 |
| 3.7 10^6No_unit | CCC1(C)OCCCO1 |
| 1 | C1COCOC1 |
| 2.4 10^9No_unit | COC1(C)OCCCO1 |
| 2.1 10^4No_unit | c1ccc2c(c1)COC1(CCCCC1)O2 |
| 1 10^8No_unit | C1CCC2(CC1)OCCCCO2 |
| 2.6 10^8No_unit | COC1(OC)OCCCO1 |
| 2.1 10^7No_unit | C1CCC2(CC1)OCCCO2 |
| 1.3 10^8No_unit | c1ccc2c(c1)CCOC1(CCCCC1)O2 |
| 1 | c1ccc2c(c1)OC1(CCCCC1)O2 |
| 1 10^2No_unit | CCC1OCCCO1 |

Assay: Oral bioavailability in mouse
Format: ADME, organism-based
Conditions: in vivo

| bioavailability | Structure (SMILES) |
| --- | --- |
| 63% | C=C(C)CN1C[C@H](OC[C@@]23C[C@@H]4[C@H](C)CC[C@H]4[C@@]4(C=O)C[C@@H]2C=C(C(C)C)[C@@]34C(=O)O)O[C@H](C)[C@@H](OC)C1 |

Assay: Oral bioavailability in human
Format: ADME, organism-based
Conditions: in vivo

| bioavailability | Structure (SMILES) |
| --- | --- |
| 40% | Nc1nc(Cl)nc2c1ncn2[C@H]1C[C@H](O)[C@@H](CO)O1 [CLADRIBINE] |
| 80% | Nc1ccn([C@H]2CC[C@@H](CO)O2)c(=O)n1 [ZALCITABINE] |
| 20% | Nc1ccn([C@@H]2O[C@H](CO)[C@@H](O)[C@@H]2O)c(=O)n1 [CYTARABINE] |

Assay: Inhibition of Leukotriene B4 production in human blood Polymorphonuclear neutrophil cells
Format: functional, tissue-based
Conditions: not given

| IC50 | Structure (SMILES) |
| --- | --- |
| 8 nM | O=C1OCc2c1cc1cc(OCc3cccc(C4(O)CC5CCC(C4)O5)c3)ccc1c2-c1ccccc1 (stereo not given) |

Assay: Stability of the compound at pH 2 assessed as half-life
Format: physicochemical
Conditions: buffer

| t1/2 | half-life | Structure (SMILES) |
| --- | --- | --- |
| 7 yr | – | O=C(O)CCC/C=C\C[C@@H]1CO[C@H](C(F)(F)F)O[C@@H]1c1ccccc1O |
| – | < 120 s | Nc1nc2c(ncn2[C@H]2C=C[C@@H](CO)O2)c(=O)[nH]1 |
| – | 56 s | CC1(C)OC[C@@H](C/C=C\CCCC(=O)O)[C@@H](c2ccccc2O)O1 |

Assay: Stability of the compound in 0.01 N HCL at pH 2.0 assessed as half-life
Format: physicochemical
Conditions: not given

| Structure (SMILES) | half-life |
| --- | --- |
| C[C@H]1[C@@H](O[C@H](CCC(=O)O)c2ccc(Cl)cc2)O[C@@H]2O[C@@]3(C)CC[C@H]4[C@H](C)CC[C@@H]1[C@@]24OO3 | 13 h |
| C[C@H]1[C@@H](Cc2ccccc2)O[C@@H]2O[C@@]3(C)CC[C@H]4[C@H](C)CC[C@@H]1[C@@]24OO3 | 165 h |
| C[C@@H]1CC[C@H]2[C@@H](C)CO[C@@H]3O[C@@]4(C)CC[C@@H]1[C@]32OO4 | 165 h |
| C[C@H]1[C@@H](OCc2ccc(C(=O)O)cc2)O[C@@H]2O[C@@]3(C)CC[C@H]4[C@H](C)CC[C@@H]1[C@@]24OO3 | 11 h |
| C[C@H]1[C@@H](CCCCC(=O)O)O[C@@H]2O[C@@]3(C)CC[C@H]4[C@H](C)CC[C@@H]1[C@@]24OO3 | 165 h |
| C[C@H]1[C@@H](CCCC(=O)O)O[C@@H]2O[C@@]3(C)CC[C@H]4[C@H](C)CC[C@@H]1[C@@]24OO3 | 165 h |
| C[C@H]1[C@@H](CCc2ccc(C(=O)O)cc2)O[C@@H]2O[C@@]3(C)CC[C@H]4[C@H](C)CC[C@@H]1[C@@]24OO3 | 165 h |
| CCCC[C@H]1O[C@@H]2O[C@@]3(C)CC[C@H]4[C@H](C)CC[C@@H]([C@H]1C)[C@@]24OO3 | 165 h |
